The results in this text go back to patent US9789156B2, “Combination anti-human epidermal growth factor receptor 2 (anti-HER2) cancer therapy using mucin 1 (MUC1) peptides and hemotherapeutics” (DANA-FARBER CANCER INSTITUTE, INC., priority 2013, dated 2017).

Molecules are shown by their SMILES. Where two headings read alike, the source gives them in different places. Square brackets hold non-standard residues; d marks the D form. Peptide text beside a SMILES is read from it.

Data set [1] has as its system BT474 cells. The format is cell-based, human. The settings on record: 72 h. As for the experimental part: (§1) Cell culture. SKBR3 and BT474 cells were obtained from ATCC (Rockville, Md.). SKBR3 and BT474 were maintained in McCoy's 5a modified medium and Dulbecco's modified Eagle medium/Ham F12 (1:1) supplemented with 10% heat-inactivated FBS, 100 units/ml penicillin, […] streptomycin, and 2 mM L-glutamine. […] Cells were treated with GO-203 and CP-2 peptides (AnaSpec). […] Viability was determined by trypan blue exclusion.
(§2) Determination of IC50 and synergism. Cells were seeded on 96-well plates in 100 μl of growth medium at a density of 3000 cells per well. After 24 h, the cells were exposed to drugs in treatment medium for an additional 72 h. Cell viability was assessed using the alamar blue viability assay (Invitrogen). Triplicate wells of each treatment were analyzed and each experiment was done three times. The IC50 values were determined by nonlinear regression of the dose-response data using Prism 5.0 for Mac OSX (GraphPad Software). […] Cell viability was determined after treatment for 72 h. The combination index (CI) was calculated to determine the presence of synergism (CI<1) or antagonism (CI>1) using CalcuSyn software (Biosoft).

Data set [2] relates to SKBR3 cells. The format is cell-based, human. Here is the method: as §1, §2
Data set [3] deals with BT474R tumor xenografts. Put plainly: Trastuzumab-resistant BT474R tumor xenograft model. The format is in vivo, BALB/c nu/nu mice. The settings on record: 7.5 mg/kg GO-203 intravenously each day for 21 days. Here is the method:
FIGS. 5A-G. Targeting MUC1-C in trastuzumab-resistant cells suppresses HER3 activation and inhibits growth and clonogenic survival. (FIG. 5A) Lysates from the indicated SKBR3R (left) and BT474R (right) cells were immunoblotted (IB) with anti-p-HER3 and anti-HER3. (FIG. 5B) The indicated SKBR3R (left) and BT474R (right) cells were seeded at 4000 and 1000 cells per well, respectively, and incubated for 12 days. The colony number is expressed as the mean±s.e. of three replicates. (FIG. 5C) SKBR3R cells were treated with […] GO-203 for the indicated times. Lysates were immunoblotted with the indicated antibodies. (FIG. 5D) SKBR3R cells were left untreated (Control; CTL) or treated with […] GO-203 for the indicated times. Cell number (mean±s.e. of three determinations) was determined by Trypan blue staining. (FIG. 5E) BT474R cells were treated with […] GO-203 for the indicated times. Lysates were immunoblotted with the indicated antibodies. (FIG. 5F) BT474R cells were left untreated (Control; CTL) or treated with […] GO-203 for the indicated times. Cell number (mean±s.e. of three determinations) was determined by Trypan blue staining. […] The results are expressed as tumor volume (mean±s.e. for the eight mice in each group).
Trastuzumab-resistant BT474R tumor xenograft model. […] Tumor volumes were calculated as described (Raina et al., 2011).

Data set [4] concerns SKBR3R cells. Kind of data set: cells. The settings on record: Homo sapiens, 72 h. In kind it is cell-based. Here is the method: as §1, §2
(§3) Assessment of drug interaction by Bliss independence. […] Using this equation, if the experimentally measured inhibition is greater than Ei, then the combination is synergistic.38 Plots were generated by Prism GraphPad software.

Data set [5] relates to BT474R cells. Kind of data set: cells. The format is cell-based, human. The settings on record: for IC50: Homo sapiens, 72 h. Here is the method:
as §1, §2, §3

In general, IC50 refers to the concentration that inhibits the measured activity by half. As to `N=C(N)NCCC[C@@H](N)C(=O)N[C@H](CCCNC(=N)N)C(=O)N[C@H](CCCNC(=N)N)C(=O)N[C@H](CCCNC(=N)N)C(=O)N[C@H](CCCNC(=N)N)C(=O)N[C@H](CCCNC(=N)N)C(=O)N[C@H](CCCNC(=N)N)C(=O)N[C@H](CCCNC(=N)N)C(=O)N[C@H](CCCNC(=N)N)C(=O)N[C@H](CS)C(=O)N[C@H](CCC(N)=O)C(=O)N[C@H](CS)C(=O)N[C@H](CCCNC(=N)N)C(=O)N[C@H](CCCNC(=N)N)C(=O)N[C@H](CCCCN)C(=O)N[C@H](CC(N)=O)C(=O)O` [GO-203] (H-[dR][dR][dR][dR][dR][dR][dR][dR][dR][dC][dQ][dC][dR][dR][dK][dN]-OH), the IC50 in data set [1] was determined as 10.2 µM; in data set [2], 5.9 µM. Further, the weight loss result in data set [3] is given as “no weight loss”.
With `CS(=O)(=O)CCNCc1ccc(-c2ccc3ncnc(Nc4ccc(OCc5cccc(F)c5)c(Cl)c4)c3c2)o1` [Lapatinib], the IC50 turned out to be 1.36 µM in data set [4] (read-out: Lapatinib (μM) IC50, SKBR3R cells, 72 h, lapatinib alone (Table 3)); 1.7 µM in data set [4] (read-out: Lapatinib (μM) IC50, SKBR3R cells, 72 h, lapatinib alone (Table 4)); 0.94 µM in data set [4] (read-out: Lapatinib (μM) IC50 with GO-203, SKBR3R cells, 72 h, with 4 μM GO-203); 0.93 µM in data set [4] (read-out: Lapatinib (μM) IC50 with Trastuzumab and GO-203, SKBR3R cells, 72 h, with 40 nM trastuzumab+4 μM GO-203); 1.5 µM in data set [4] (read-out: Lapatinib (μM) IC50 with Trastuzumab, SKBR3R cells, 72 h, with 40 nM trastuzumab); 1.43 µM in data set [5] (read-out: Lapatinib (μM) IC50, BT474R cells, 72 h, lapatinib alone (Table 3)). The IC50 came to 1.5 µM in data set [5] (read-out: Lapatinib (μM) IC50, BT474R cells, 72 h, lapatinib alone (Table 4)); 0.67 µM in data set [5] (read-out: Lapatinib (μM) IC50 with GO-203, BT474R cells, 72 h, with 4 μM GO-203); 0.22 µM in data set [5] (read-out: Lapatinib (μM) IC50 with Trastuzumab and GO-203, BT474R cells, 72 h, with 40 nM trastuzumab+4 μM GO-203); 1.2 µM in data set [5] (read-out: Lapatinib (μM) IC50 with Trastuzumab, BT474R cells, 72 h, with 40 nM trastuzumab). In data set [5] (BT474R cells, lapatinib IC50 alone vs with GO-203), the Fold change is listed as 2.13.
